Measured values reported in patent US20090304692A1, “TRIAZINE COMPOUNDS AS PI3 KINASE AND MTOR INHIBITORS” (Wyeth, priority 2008, published 2009).

How the values were obtained:
PI3K-α = PI3K-α (Homo sapiens, UniProt P42336); test: PI3K-alpha fluorescence polarization assay; conditions: read-out: IC50 PI3Kα
PI3K-γ = PI3K-γ (Homo sapiens, UniProt P48736); test: PI3K-gamma fluorescence polarization assay; conditions: read-out: IC50 PI3Kγ
Human mTOR (FLAG-TOR) = Human mTOR (FLAG-TOR) (Homo sapiens, UniProt P42345); test: mTOR kinase assay (DELFIA format, purified enzyme); type: biochemical; conditions: read-out: IC50 mTOR
[1] = system: human prostate LNCap tumor cell line; test: In vitro cell culture growth assay (MTS), LNCap; conditions: Homo sapiens, LNCaP, 72 h, read-out: IC50 LNCap

Chain of Human mTOR (FLAG-TOR) (P42345 1360-2549 limits assumed): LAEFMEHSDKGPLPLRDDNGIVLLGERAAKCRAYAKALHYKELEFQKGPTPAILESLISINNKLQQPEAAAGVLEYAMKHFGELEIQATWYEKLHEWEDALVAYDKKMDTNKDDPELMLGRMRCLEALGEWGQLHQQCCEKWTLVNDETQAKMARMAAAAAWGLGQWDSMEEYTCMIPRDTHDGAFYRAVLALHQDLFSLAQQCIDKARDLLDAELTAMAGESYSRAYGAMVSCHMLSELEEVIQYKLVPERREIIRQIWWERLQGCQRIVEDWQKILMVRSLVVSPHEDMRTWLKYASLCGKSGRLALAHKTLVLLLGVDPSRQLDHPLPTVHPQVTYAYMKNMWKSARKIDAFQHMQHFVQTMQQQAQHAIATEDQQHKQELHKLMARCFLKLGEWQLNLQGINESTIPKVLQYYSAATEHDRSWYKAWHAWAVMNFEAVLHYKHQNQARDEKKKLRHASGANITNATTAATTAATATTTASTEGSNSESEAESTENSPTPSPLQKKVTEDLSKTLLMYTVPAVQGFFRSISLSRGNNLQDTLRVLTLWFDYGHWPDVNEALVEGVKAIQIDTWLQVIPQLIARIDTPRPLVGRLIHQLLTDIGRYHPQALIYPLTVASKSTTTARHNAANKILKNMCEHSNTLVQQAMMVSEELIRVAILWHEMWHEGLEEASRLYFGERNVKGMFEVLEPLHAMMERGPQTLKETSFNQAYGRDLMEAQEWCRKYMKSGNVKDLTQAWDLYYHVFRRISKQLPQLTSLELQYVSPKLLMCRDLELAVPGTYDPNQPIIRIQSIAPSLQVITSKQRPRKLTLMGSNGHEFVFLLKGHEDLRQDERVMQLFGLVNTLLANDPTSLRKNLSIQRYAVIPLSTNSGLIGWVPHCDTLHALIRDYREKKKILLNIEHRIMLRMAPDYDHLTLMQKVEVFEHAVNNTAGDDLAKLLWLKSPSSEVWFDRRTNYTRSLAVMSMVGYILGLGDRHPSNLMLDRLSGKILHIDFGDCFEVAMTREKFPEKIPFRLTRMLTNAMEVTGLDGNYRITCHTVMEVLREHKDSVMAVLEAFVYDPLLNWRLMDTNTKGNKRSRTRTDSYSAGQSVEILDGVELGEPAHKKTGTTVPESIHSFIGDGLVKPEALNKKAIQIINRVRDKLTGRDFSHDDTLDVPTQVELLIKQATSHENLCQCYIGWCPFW
Chain of PI3K-α (P42336 whole entry, species assumed): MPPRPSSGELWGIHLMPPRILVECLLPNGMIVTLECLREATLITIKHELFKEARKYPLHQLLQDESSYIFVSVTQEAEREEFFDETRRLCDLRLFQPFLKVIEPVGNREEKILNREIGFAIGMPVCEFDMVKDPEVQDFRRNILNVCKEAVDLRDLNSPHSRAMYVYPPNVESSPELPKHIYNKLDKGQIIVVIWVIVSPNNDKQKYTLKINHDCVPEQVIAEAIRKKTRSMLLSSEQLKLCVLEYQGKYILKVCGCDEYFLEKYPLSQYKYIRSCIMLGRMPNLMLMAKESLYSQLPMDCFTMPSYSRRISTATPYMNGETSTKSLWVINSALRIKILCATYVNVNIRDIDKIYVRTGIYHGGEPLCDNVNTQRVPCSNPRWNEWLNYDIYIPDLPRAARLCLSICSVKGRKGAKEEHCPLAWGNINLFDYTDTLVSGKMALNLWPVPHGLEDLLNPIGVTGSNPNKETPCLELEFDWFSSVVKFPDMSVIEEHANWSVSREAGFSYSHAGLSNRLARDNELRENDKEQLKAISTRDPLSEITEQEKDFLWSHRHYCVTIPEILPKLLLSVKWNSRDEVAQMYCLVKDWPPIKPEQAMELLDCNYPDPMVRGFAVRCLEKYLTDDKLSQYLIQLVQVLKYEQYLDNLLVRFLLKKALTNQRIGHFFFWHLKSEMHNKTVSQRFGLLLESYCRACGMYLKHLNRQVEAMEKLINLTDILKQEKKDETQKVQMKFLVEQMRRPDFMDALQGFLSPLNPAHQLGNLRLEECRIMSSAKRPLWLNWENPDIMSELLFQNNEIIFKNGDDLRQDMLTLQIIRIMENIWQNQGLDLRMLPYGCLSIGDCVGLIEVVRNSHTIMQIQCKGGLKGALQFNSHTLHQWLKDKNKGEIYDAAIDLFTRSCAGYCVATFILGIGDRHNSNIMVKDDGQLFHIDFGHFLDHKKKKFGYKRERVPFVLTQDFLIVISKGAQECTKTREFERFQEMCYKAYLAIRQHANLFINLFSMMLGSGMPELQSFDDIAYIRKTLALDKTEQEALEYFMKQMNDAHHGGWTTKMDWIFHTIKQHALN
Chain of PI3K-α (P27986 whole entry partner, species assumed): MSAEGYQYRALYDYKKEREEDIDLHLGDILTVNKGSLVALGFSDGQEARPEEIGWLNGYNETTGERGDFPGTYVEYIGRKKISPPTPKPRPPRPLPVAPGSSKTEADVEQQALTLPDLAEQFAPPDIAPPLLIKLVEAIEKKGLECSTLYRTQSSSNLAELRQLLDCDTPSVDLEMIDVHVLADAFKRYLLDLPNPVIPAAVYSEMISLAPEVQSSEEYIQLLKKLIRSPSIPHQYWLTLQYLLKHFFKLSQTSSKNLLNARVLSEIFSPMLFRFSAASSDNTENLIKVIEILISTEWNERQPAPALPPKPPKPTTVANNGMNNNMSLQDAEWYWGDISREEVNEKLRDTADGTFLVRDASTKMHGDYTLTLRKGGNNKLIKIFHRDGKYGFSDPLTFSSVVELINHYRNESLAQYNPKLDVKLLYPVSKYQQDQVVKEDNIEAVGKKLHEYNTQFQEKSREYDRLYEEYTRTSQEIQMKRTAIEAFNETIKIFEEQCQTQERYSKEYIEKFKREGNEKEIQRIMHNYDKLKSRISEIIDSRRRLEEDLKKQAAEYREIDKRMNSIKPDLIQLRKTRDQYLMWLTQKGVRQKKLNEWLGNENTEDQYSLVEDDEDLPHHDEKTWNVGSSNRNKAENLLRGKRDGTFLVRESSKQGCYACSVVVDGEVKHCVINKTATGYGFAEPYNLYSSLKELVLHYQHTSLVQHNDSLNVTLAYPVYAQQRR
Chain of PI3K-γ (P48736 whole entry, species assumed): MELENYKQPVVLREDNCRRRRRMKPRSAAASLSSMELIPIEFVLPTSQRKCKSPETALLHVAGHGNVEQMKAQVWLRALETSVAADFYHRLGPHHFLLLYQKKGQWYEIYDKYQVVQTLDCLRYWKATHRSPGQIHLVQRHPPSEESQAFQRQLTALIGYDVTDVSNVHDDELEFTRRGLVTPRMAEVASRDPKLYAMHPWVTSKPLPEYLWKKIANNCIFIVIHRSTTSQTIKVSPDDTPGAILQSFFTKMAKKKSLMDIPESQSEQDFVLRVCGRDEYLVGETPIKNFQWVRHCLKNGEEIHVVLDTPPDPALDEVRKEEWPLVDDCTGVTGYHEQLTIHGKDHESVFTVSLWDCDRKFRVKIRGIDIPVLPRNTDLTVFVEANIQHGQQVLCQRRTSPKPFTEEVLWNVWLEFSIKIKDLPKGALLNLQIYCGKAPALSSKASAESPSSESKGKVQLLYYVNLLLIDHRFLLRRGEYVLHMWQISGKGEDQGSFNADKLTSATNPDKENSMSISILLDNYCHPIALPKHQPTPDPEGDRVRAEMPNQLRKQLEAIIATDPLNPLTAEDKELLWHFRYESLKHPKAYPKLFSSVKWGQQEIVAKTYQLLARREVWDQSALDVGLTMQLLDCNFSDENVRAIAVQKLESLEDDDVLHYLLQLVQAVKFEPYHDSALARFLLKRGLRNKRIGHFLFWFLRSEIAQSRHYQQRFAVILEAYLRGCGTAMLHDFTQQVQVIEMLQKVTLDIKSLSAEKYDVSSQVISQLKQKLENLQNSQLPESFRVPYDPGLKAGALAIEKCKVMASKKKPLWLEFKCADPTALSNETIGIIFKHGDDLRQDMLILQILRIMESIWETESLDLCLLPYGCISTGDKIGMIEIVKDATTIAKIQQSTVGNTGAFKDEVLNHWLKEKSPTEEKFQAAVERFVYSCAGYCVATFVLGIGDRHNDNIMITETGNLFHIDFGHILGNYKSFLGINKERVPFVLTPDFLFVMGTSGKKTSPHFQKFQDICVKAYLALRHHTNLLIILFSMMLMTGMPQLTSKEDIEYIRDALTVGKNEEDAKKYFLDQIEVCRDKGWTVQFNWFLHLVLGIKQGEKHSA

| IC50 (PI3K-α) | IC50 (PI3K-γ) | IC50 (Human mTOR (FLAG-TOR)) | IC50 [1] | SMILES |
| --- | --- | --- | --- | --- |
| 269 nM | 1220 nM | 0.79 nM | 2 nM | C[C@@H]1COCCN1c1nc(-c2ccc(NC(=O)Nc3ccc(N4CCNCC4)cc3)cc2)nc(C2CCOCC2)n1 [Example 422, (R)-1-(4-(4-(3-methylmorpholino)-6-(tetrahydro-2H-pyran-4-yl)-1,3,5-triazin-2-yl)phenyl)-3-(4-(piperazin-1-yl)phenyl)urea] |
| 884 nM | 3510 nM | 29 nM | 220 nM | O=C(Nc1ccncc1)Nc1ccc(-c2nc(N3CCN(Cc4cccnc4)CC3)nc(N3CC4CCC(C3)O4)n2)cc1 [Example 110, 1-(4-{4-(8-oxa-3-azabicyclo[3.2.1]oct-3-yl)-6-[4-(pyridin-3-ylmethyl)piperazin-1-yl]-1,3,5-triazin-2-yl}phenyl)-3-pyridin-4-ylurea] |
| 45 nM | 2540 nM | 0.29 nM | 0.7 nM | O=C(Nc1ccc(CO)cc1)Nc1ccc(-c2nc(N3CC4CCC(C3)O4)nc(N3CC4CCC(C3)O4)n2)cc1 [Example 32, 1-[4-(4,6-di-8-oxa-3-azabicyclo[3.2.1]oct-3-yl-1,3,5-triazin-2-yl)phenyl]-3-[4-(hydroxymethyl)phenyl]urea] |
| 76 nM | 888 nM | 1.7 nM | < 0.8 nM | C[C@@H]1COCCN1c1nc(-c2ccc(NC(=O)Nc3ccc(C(=O)N4CCN(C)CC4)cc3)cc2)nc(N2CCOC[C@H]2C)n1 [Example 450, 1-(4-(4,6-bis((R)-3-methylmorpholino)-1,3,5-triazin-2-yl)phenyl)-3-(4-(4-methylpiperazine-1-carbonyl)phenyl)urea] |
| 133 nM | 3920 nM | 2 nM | 1.2 nM | CC(C)Oc1nc(-c2ccc(NC(=O)Nc3ccc(N4CCN(C)CC4)cc3)cc2)nc(N2CC3CCC(C2)O3)n1 [Example 159, 1-{4-[4-isopropoxy-6-(8-oxa-3-azabicyclo[3.2.1]oct-3-yl)-1,3,5-triazin-2-yl]phenyl}-3-[4-(4-methylpiperazin-1-yl)phenyl]urea] |
| 969 nM | 5450 nM | 6.9 nM | 120 nM | C[C@@H]1COCCN1c1nc(-c2ccc(NC(=O)Nc3ccc(CN4CCCC4)cc3)cc2)nc(N2C[C@@H]3C[C@H]2CO3)n1 [Example 414, 1-(4-(4-((1S,4S)-2-oxa-5-azabicyclo[2.2.1]heptan-5-yl)-6-((R)-3-methylmorpholino)-1,3,5-triazin-2-yl)phenyl)-3-(4-(pyrrolidin-1-ylmethyl)phenyl)urea] |
| 102 nM | 1080 nM | 0.405 nM | 60 nM | O=C(Nc1ccncc1)Nc1ccc(-c2nc(N3CC4CCC(C3)O4)nc(N3[C@H](CO)CC[C@@H]3CO)n2)cc1 [Example 667, 1-(4-{4-[(2R,5S)-2,5-bis(hydroxymethyl)pyrrolidin-1-yl]-6-(8-oxa-3-azabicyclo[3.2.1]oct-3-yl)-1,3,5-triazin-2-yl}phenyl)-3-pyridin-4-ylurea] |
| 152 nM | 572 nM | 0.5 nM | 10 nM | CC(C)Nc1nc(-c2ccc(NC(=O)Nc3ccc(CCO)cc3)cc2)nc(N2CC3CCC(C2)O3)n1 [Example 222, 1-[4-(2-hydroxyethyl)phenyl]-3-(4-{4-[(1-methylethyl)amino]-6-(8-oxa-3-azabicyclo[3.2.1]oct-3-yl)-1,3,5-triazin-2-yl}phenyl)urea] |
| 358 nM | 9070 nM | 7 nM | 220 nM | O=C(Nc1ccncc1)Nc1ccc(-c2nc(Cl)nc(N3CC4CCC(C3)O4)n2)cc1 [Example 160, 1-{4-[4-chloro-6-(8-oxa-3-azabicyclo[3.2.1]oct-3-yl)-1,3,5-triazin-2-yl]phenyl}-3-pyridin-4-ylurea] |
| 105 nM | 954 nM | 0.29 nM | 22 nM | CC(C)(C)Nc1nc(-c2ccc(NC(=O)Nc3cccnc3)cc2)nc(N2CC3CCC(C2)O3)n1 [Example 262, 1-{4-[4-(tert-butylamino)-6-(8-oxa-3-azabicyclo[3.2.1]oct-3-yl)-1,3,5-triazin-2-yl]phenyl}-3-pyridin-3-ylurea] |
| 13.5 nM | 732 nM | 0.24 nM | < 0.8 nM | CN(C)CC(=O)Nc1ccc(NC(=O)Nc2ccc(-c3nc(N4CC5CCC(C4)O5)nc(N4CC5CCC(C4)O5)n3)cc2)cc1 [Example 352, N-[4-({[4-(4,6-di-8-oxa-3-azabicyclo[3.2.1]oct-3-yl-1,3,5-triazin-2-yl)phenyl]carbamoyl}amino)phenyl]-N2,N2-dimethylglycinnamide] |
| 1390 nM | 4730 nM | 51.5 nM | 1350 nM | CC(C)(C)OC(=O)CNC1CCN(c2nc(-c3ccc(NC(=O)Nc4ccncc4)cc3)nc(N3CC4CCC(C3)O4)n2)CC1 [Example 127, Tert-butyl 2-(1-(4-(8-oxa-3-azabicyclo[3.2.1]octan-3-yl)-6-(4-(3-pyridin-4-ylureido)phenyl)-1,3,5-triazin-2-yl)piperidin-4-ylamino)acetate] |

| SMILES | IC50 (PI3K-α) | IC50 (PI3K-γ) | IC50 (Human mTOR (FLAG-TOR)) | IC50 [1] |
| --- | --- | --- | --- | --- |
| CN(C)C(=O)c1ccc(NC(=O)Nc2ccc(-c3nc(C4CCOCC4)nc(N4C5CCC4COC5)n3)cc2)cc1 [Example 455, 4-(3-(4-(4-(3-oxa-8-azabicyclo[3.2.1]octan-8-yl)-6-(tetrahydro-2H-pyran-4-yl)-1,3,5-triazin-2-yl)phenyl)ureido)-N,N-dimethylbenzamide] | 113 nM | 1390 nM | 0.3 nM | < 0.8 nM |
| CC(C)Nc1nc(-c2ccc(NC(=O)Nc3ccc(OCCN(C)C)cc3)cc2)nc(N2C3CCC2COC3)n1 [Example 385, 1-(4-(4-(3-oxa-8-azabicyclo[3.2.1]octan-8-yl)-6-(isopropylamino)-1,3,5-triazin-2-yl)phenyl)-3-(4-(2-(dimethylamino)ethoxy)phenyl)urea] | 3400 nM | 4690 nM | 5.7 nM | 70 nM |
| O=C(Nc1ccc(-c2nc(C3CCOCC3)nc(N3C4CCC3COC4)n2)cc1)Nc1ccc(N2CCN(C3CC3)CC2)cc1 [Example 436, 1-(4-(4-(3-oxa-8-azabicyclo[3.2.1]octan-8-yl)-6-(tetrahydro-2H-pyran-4-yl)-1,3,5-triazin-2-yl)phenyl)-3-(4-(4-cyclopropylpiperazin-1-yl)phenyl)urea] | 749 nM | 3120 nM | 0.62 nM | 10 nM |
| C[C@@H]1COCCN1c1nc(-c2ccc(NC(=O)Nc3ccc(CN4CCCC4)cc3)cc2)nc(N2C3CCC2COC3)n1 [Example 418, 1-(4-(4-(3-oxa-8-azabicyclo[3.2.1]octan-8-yl)-6-((R)-3-methylmorpholino)-1,3,5-triazin-2-yl)phenyl)-3-(4-(pyrrolidin-1-ylmethyl)phenyl)urea] | 520 nM | 3480 nM | 1.5 nM | 40 nM |
| O=C(Nc1ccc(C(=O)N2CCCC2)cc1)Nc1ccc(-c2nc(C3CCOCC3)nc(N3C4CCC3COC4)n2)cc1 [Example 456, 1-(4-(4-(3-oxa-8-azabicyclo[3.2.1]octan-8-yl)-6-(tetrahydro-2H-pyran-4-yl)-1,3,5-triazin-2-yl)phenyl)-3-(4-(pyrrolidine-1-carbonyl)phenyl)urea] | 150 nM | 1550 nM | 0.7 nM | < 0.8 nM |
